Where two headings read alike, the source gives them in different places. Blank lines part the entries; values can stand above or below the molecule they belong to. Where a SMILES comes first, the peptide text is derived from it.
Assays:
[1] = target: T1, Angiotensin-I-converting enzyme (ACE) (Oryctolagus cuniculus, UniProt P12822); test: In vitro assay of ACE inhibitory activity; type: biochemical; settings: triplicate, mean ± SD; for ACE inhibitory activity: 0.54 mg/mL protein concentration, second RP-HPLC fractions; for IC50: logarithmic regression
T1 construct: purchased Sigma-Aldrich (Shanghai, China)
T1 sequence (P12822 34-1310): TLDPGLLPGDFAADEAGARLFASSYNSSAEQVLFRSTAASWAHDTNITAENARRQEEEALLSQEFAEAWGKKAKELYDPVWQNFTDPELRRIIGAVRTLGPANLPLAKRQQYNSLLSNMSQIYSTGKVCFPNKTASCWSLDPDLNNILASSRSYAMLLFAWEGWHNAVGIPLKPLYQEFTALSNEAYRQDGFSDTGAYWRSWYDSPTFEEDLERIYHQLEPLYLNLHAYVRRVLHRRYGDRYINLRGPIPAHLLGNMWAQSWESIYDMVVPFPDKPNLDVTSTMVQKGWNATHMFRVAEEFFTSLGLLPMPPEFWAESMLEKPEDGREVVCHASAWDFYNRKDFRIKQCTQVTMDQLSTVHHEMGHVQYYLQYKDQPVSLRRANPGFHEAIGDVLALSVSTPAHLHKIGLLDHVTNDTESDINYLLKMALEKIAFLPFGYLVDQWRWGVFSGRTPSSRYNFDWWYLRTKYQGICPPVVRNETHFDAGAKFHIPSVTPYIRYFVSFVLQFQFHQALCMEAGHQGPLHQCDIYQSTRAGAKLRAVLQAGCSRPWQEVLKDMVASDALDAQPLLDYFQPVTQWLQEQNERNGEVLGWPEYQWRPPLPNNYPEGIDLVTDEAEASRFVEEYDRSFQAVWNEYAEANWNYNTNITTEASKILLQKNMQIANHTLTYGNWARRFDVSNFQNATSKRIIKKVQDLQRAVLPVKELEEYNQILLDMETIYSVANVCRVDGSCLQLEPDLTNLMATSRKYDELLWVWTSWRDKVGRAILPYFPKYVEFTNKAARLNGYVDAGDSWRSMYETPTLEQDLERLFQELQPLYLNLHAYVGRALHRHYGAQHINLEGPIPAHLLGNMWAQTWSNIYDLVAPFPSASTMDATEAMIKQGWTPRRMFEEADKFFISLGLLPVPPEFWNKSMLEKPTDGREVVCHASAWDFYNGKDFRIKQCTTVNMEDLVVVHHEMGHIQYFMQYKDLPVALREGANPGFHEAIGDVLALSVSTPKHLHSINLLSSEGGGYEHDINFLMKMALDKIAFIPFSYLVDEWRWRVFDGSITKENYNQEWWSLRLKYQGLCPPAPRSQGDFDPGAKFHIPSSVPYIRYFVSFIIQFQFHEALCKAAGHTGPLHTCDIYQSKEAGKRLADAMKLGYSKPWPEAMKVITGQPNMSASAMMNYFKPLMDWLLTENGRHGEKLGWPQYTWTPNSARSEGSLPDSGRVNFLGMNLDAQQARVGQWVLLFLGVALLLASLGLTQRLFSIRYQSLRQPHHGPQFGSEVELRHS
Method: ACE inhibitory activity in vitro was measured according to the reported method. The activity was determined for each step of separation, and fraction with the highest ACE inhibitory activity was collected for further purification. The IC50 value (the concentration of peptide inhibiting 50% of enzyme activity) was determined by logarithmic regression analysis.
(§1) All the experiments were performed in triplicate and mean values with ± SD (standard deviation) were reported. All data were analyzed by one-way ANOVA, using SPSS 17.0 software (Chicago, IL, USA). A value of p < 0.05 was considered statistically significant.

[2] = target: T2, ACE (Oryctolagus cuniculus, UniProt P12822); test: Inhibition pattern by Lineweaver-Burk plot; type: biochemical; settings: HHL 1-5 mM, HLHT 0, 295.86, 591.72 μM, GWA 0, 98.62, 197.24 μM, pre-incubated 37 °C 10 min, 5 min incubation with HHL, HPLC 228 nm
T2 construct: purchased Sigma-Aldrich (Shanghai, China)
T2 sequence (P12822 34-1310): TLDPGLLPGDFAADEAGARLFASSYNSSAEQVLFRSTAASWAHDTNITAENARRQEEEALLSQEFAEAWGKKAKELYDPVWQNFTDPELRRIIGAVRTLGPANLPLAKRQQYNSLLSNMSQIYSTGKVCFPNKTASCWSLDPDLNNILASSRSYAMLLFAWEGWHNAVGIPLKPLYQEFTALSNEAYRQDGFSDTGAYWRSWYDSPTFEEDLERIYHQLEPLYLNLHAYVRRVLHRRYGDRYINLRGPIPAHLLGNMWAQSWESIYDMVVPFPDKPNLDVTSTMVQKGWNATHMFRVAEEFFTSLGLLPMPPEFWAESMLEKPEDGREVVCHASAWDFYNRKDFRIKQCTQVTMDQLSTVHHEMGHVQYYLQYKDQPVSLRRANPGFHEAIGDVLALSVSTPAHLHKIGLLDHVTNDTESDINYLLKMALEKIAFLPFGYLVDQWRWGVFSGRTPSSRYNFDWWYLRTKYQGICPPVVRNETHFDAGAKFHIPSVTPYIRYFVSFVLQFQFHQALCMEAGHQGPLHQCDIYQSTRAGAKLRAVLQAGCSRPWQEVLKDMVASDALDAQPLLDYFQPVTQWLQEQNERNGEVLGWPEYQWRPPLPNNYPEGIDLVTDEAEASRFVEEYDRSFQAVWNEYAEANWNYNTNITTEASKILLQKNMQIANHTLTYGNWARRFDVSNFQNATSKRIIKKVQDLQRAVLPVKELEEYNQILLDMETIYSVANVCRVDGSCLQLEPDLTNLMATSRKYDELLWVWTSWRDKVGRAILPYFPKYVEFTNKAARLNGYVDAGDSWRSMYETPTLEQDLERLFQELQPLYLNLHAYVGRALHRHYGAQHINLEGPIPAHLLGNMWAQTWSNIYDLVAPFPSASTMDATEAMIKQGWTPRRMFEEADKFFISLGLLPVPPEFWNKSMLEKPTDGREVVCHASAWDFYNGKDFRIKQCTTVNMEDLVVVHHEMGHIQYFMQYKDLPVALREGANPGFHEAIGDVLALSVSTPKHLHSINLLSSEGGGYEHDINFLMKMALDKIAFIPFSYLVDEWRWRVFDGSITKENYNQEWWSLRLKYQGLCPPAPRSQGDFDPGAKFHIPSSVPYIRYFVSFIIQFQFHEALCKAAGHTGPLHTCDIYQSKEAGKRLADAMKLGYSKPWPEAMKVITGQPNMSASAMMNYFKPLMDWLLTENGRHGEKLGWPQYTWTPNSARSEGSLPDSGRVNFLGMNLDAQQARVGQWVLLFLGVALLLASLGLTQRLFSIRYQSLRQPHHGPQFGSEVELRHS
Method: The inhibitory patterns of purified peptides HLHT and GWA on ACE were evaluated by incubating various concentrations (1, 2, 3, 4, and 5 mM) of HHL with ACE in the absence and presence of inhibitory peptides. The concentrations of HLHT were set as 0, 295.86, and 591.72 μM while those of GWA were set as 0, 98.62, and 197.24 μM. The purified ACE inhibitory peptide (30 µL) at various concentrations and ACE solution (30 µL) were mixed and pre-incubated at 37 °C for 10 min. Subsequently, HHL (40 µL) was added and incubated for 5 min at 37 °C. The reaction was terminated by adding 1 M HCl (150 µL). The released hippuric acid (HA) was quantified using HPLC at 228 nm. The ACE inhibitory pattern in the presence of the inhibitor was determined using the Lineweaver–Burk plot, where the reciprocal of HHL concentration was used as the independent variable (X-axis) and the reciprocal of production rate of HA as the dependent variable (Y-axis).

[3] = system: SD rats; test: Antihypertensive activity in SD rats, SBP and DBP after intravenous administration; type: in vivo; settings: 10 mg/kg
Method: The antihypertensive efficacy of POMPH was evaluated in male SD rats (10 weeks old, 250 ± 30 g body weight, specific pathogen-free, provided by the animal experimental center of Guangxi medical University, China). All rats were cared and fed following the standards for laboratory animals established by People’s Republic of China (GB14925-2001) and animal handling followed the Declaration of Helsinki and the Guiding Principles in the Care and Use of Animals. The rats were exposed to intraperitoneal injection L-NNA (L-nitro-arginine) once a day for four weeks prior to the experiments. The POMPH at 10 mg/kg, dissolved in a vehicle of 0.9% NaCl, were intravenously administered. The concentration of HLHT and GWA in POMPH were 1.8 µg/mg and 1.2 µg/mg, respectively. The efficacy of POMPH on lowering SBP and diastolic blood pressure (DBP) was compared to that of captopril (10 mg/kg). Control rats were administrated with the same volume of saline solution. SBP and DBP were determined by the noninvasive tail cuff method using BP-2010 (Softron Beijing biotechnology Co., Ltd) at 0 min (before) and 5, 10, 20 and 45 min after the administration.
as §1

[4] = target: T2, ACE; settings: cited from earlier work
Excerpt: Table 2 Summary of ACE inhibitory peptides having similar structure with purified peptides. | column: IC50 (μM) || Table 3 Inhibition pattern of ACE inhibitory peptides derived from marine products. | column: Inhibition Pattern; IC50 (μM)

[5] = synthesized peptide (98% purity)

ACE inhibitory activity [1]: 84.71 ± 1.27%
IC50 ([1]; peptide purified from POMPH): 109 ± 1.45 µM
IC50 [1, 5]: 98.9 ± 5.73 µM
Inhibition Pattern [2]: competitive inhibition pattern
Molecule: C[C@H](NC(=O)[C@H](Cc1c[nH]c2ccccc12)NC(=O)CN)C(=O)O [GWA, Gly-Trp-Ala] (H-Gly-Trp-Ala-OH)

ACE inhibitory activity [1]: 64.73 ± 1.32%
IC50 ([1]; peptide purified from POMPH): 458.1 ± 3.24 µM
IC50 [1, 5]: 452.2 ± 2.36 µM
Molecule: CC(C)C[C@H](NC(=O)[C@@H](N)Cc1c[nH]cn1)C(=O)N[C@@H](Cc1c[nH]cn1)C(=O)N[C@H](C(=O)O)[C@@H](C)O [HLHT, His-Leu-His-Thr] (H-HLHT-OH)

Molecule: C[C@H](CS)C(=O)N1CCC[C@H]1C(=O)O [captopril]
change in SBP vs control, in words ([3]; 0-45 min): significant decrease in SBP
maximum decrease in SBP ([3]; 20 min, male L-NNA-treated SD rats, tail cuff): 27.0 mmHg
SBP beyond 20 min ([3]; beyond 20 min (to 45 min)): remained stable
change in DBP vs control, in words ([3]; in comparison with control group): significantly changed in comparison with control group
DBP after 20 min of intravenous administration ([3]; "decreased to", 20 min, male L-NNA-treated SD rats, tail cuff): 39.5 mmHg

Molecule: CRQHTLGHNT-QTSIAQ
Inhibition Pattern ([4]; ref [32]): Non-competitive

Molecule: CRQHTLGHNT-QTSIAQ (CRQHTLGHNTQTSIAQ)
IC50 ([4]; ref [32]): 80 µM

Molecule: EVSQGRP
IC50 ([4]; ref [32]): 50 µM
Inhibition Pattern ([4]; ref [32]): Mixed inhibition

Molecule: FEDYVPLSCF
IC50 ([4]; ref [31]): 10.8 µM
Inhibition Pattern ([4]; ref [31]): Mixed inhibition

Molecule: GDLGKTTTVSN-WSPPKYKDTP
Inhibition Pattern ([4]; ref [33]): Non-competitive

Molecule: GDLGKTTTVSN-WSPPKYKDTP (GDLGKTTTVSNWSPPKYKDTP)
IC50 ([4]; ref [33]): 11.3 µM

Molecule: GWAP
IC50 ([4]; ref [28]): 3.86 µM

Source: PMC6723713, “Purification, Characterization and Evaluation of Inhibitory Mechanism of ACE Inhibitory Peptides from Pearl Oyster (Pinctada fucata martensii) Meat Protein Hydrolysate” (Marine Drugs, 2019)
